Experimental findings from patent publication US5217975A (priority 1989, dated 1993) are described below.

The structures appear in SMILES notation. Read-outs that look alike come from different tables or passages of the source.

The target of test [1] is muscarinic receptors. The test is described as follows: Radioligand binding: displacement of muscarinic agonist 3H-Oxotremorine-M (3H-OXO-M), rat cerebral cortex. More on the design: species or system Hooded Lister rats. As to conditions: displacement of 2 nM 3H-OXO-M, 2 mM magnesium chloride, 37° C., 30 min.
Test [2] deals with muscarinic receptors. Type of test: binding, Hooded Lister rats. As to conditions: displacement of 0.27 nM 3H-QNB, rat cerebral cortex, 37° C., 30 min.

As usually defined, the IC50 is the midpoint of a concentration-inhibition curve. A low value points to inhibition by little substance. On to `CCn1nnc([C@@H]2CN3CC[C@@H]2C3)n1` (relative stereo) [Example E18, (±) exo-3-(2-Ethyltetrazol-5-yl)-1-azabicyclo[2.2.1]heptane], for which the IC50 at muscarinic receptors [1] is 0.4 µM; on muscarinic receptors [2], 5.5 µM.

In the case of `Cn1ncc(C2CN3CCC2CC3)n1` (racemic) [Example E11], the IC50 at muscarinic receptors [1] is 0.056 µM; at muscarinic receptors [2], 6.55 µM.

For `CCn1ncc(C23CCN(CC2)C3)n1` [Example E16], the figures for the IC50 on muscarinic receptors [1] and at muscarinic receptors [2] were 0.44 µM and 15.8 µM, respectively.

On to `Cn1nnc([C@@H]2CN3CC[C@@H]2C3)n1` (relative stereo) [Example E4, (±) exo-3-(2-Methyltetrazol-5-yl)-1-azabicyclo-[2.2.1]heptane], for which the IC50 on muscarinic receptors [1] was 0.0115 µM; at muscarinic receptors [2], 3.7 µM.

For `Cn1nnc(C2CN3CCC2CC3)n1` (racemic) [Example E2, (±) 3-(2-Methyltetrazol-5-yl)-1-azabicyclo[2.2.2]octane], the values for the IC50 on muscarinic receptors [1] and on muscarinic receptors [2] were 0.23 µM and 5.7 µM, respectively.

As for `Cn1ncc([C@H]2CN3CC[C@@H]2C3)n1` (relative stereo) [Example E15, (±) endo-3-(2-Methyl-1,2,3-triazol-4-yl)-1-azabicyclo [2.2.1]heptane], the concentration for half-maximal inhibition (IC50) turned out to be 0.0105 µM on muscarinic receptors [1] and 18.5 µM at muscarinic receptors [2].

With `Cn1ncc(C23CCCN(CC2)C3)n1` (racemic) [Example E1, (±) 5-(2-Methyl-1,2,3-triazol-4-yl)-1-azabicyclo-[3.2.1]octane], the figures for the IC50 on muscarinic receptors [1] and on muscarinic receptors [2] were 0.0142 µM and 3 µM, respectively.

In the case of `Cn1nncc1C1CN2CCC1CC2` (racemic) [Example E13], the IC50 stood at 0.75 µM at muscarinic receptors [1] and 38 µM at muscarinic receptors [2].

As for `CCn1ncc([C@@H]2CN3CC[C@@H]2C3)n1` (relative stereo) [Example E19, (±) exo-3-(2-Ethyl-1.2.3-triazol-4-yl)-1-azabicyclo [2.2.1]heptane], the values for the IC50 on muscarinic receptors [1] and at muscarinic receptors [2] were 0.54 µM and 2.2 µM, respectively.

For the compound `Cn1nnc(C23CCN(CC2)C3)n1` [Example E8, 4-(2-Methyltetrazol-5-yl)-1-azabicyclo2.2.11 heptane], the IC50 on muscarinic receptors [1] was 0.25 µM; on muscarinic receptors [2] it was 56 µM.

Regarding `Cn1nnc([C@H]2CN3CC[C@@H]2C3)n1` (relative stereo) [Example E6, (±) endo-3-(2-Methyltetrazol-5-yl)-1-azabicyclo-[2.2.1]heptane], the values for the concentration for half-maximal inhibition (IC50) on muscarinic receptors [1] and on muscarinic receptors [2] were 0.324 µM and 40 µM, respectively.

As to `Cn1nnc(C23CCCN(CC2)C3)n1` (racemic) [Example E3, (±) 5-(2-Methyltetrazol-5-yl)-1-azabicyclo[3.2.1]octane], the IC50 at muscarinic receptors [1] worked out at 0.1 µM; at muscarinic receptors [2] it was 8.2 µM.

`CCn1nnc(C2CN3CCC2CC3)n1` (racemic) [Example E9, (±) 3-(2-Ethyltetrazol-5-yl)-1-azabicyclo[2.2.2]octane]: the IC50 came out at 1 µM at muscarinic receptors [1] and 8.3 µM on muscarinic receptors [2].

With `Cn1ncc(C23CCN(CC2)C3)n1` [Example E10, 4-(2-Methyl-1,2,3-triazol-4-yl)-1-azabicyclo[2.2.1]-heptane], the results for the IC50 on muscarinic receptors [1] and on muscarinic receptors [2] were 0.032 µM and 20 µM, respectively.

Consider `Cn1ncc([C@@H]2CN3CC[C@@H]2C3)n1` (relative stereo) [Example E14, (±) exo-3-(2-Methyl-1,2,3-triazol-4-y1)-1-azabicyclo 2.2.1]heptane], for which the IC50 on muscarinic receptors [1] was 0.0056 µM; at muscarinic receptors [2], 5.7 µM.

Regarding `Cn1nnnc1[C@@H]1CN2CC[C@@H]1C2` (relative stereo) [Example E5, (±) exo-3-(1-Methyltetrazol-5-yl)-1-azabicyclo-[2.2.1]heptane], the IC50 was determined as 0.349 µM at muscarinic receptors [1] and 95 µM at muscarinic receptors [2].
